pEC50, pIC50: −log10 of the molar value. Like-named read-outs stand apart in the source and are kept apart here.
Experiments:
[1] = test system: yeast strains expressing the human protein ApoE4; experiment: Yeast rescue assay, ApoE4 toxicity (OD600 growth); assay type: cell-based; conditions: 24 h
Description: (§1) In a standard yeast assay, a single-use aliquot of cells was thawed on ice and diluted into CSM/glucose (5 mL). Cultures were grown for 8 hours at 30° C. This pre-growth enables the yeast to exit the thaw and begin to grow without expressing aSyn or ApoE4. After 8 hours, cell density (OD600) was determined and cultures diluted to an OD600 of 0.01 in CSM/raffinose for an overnight culture phase at 30° C. During this period, the active glucose repression of the GAL1 promoter was relieved; however, expression of the α-Syn/ApoE4 genes were not yet induced. After ˜16 hours of growth, cultures attain an OD600 of 0.4-0.8 and were ready to apply to assay plates containing compound.
Compound profiling assays were executed in clear-bottom 384 well plates. First, compound plates were thawed at room temperature for 45′, centrifuged at 1,000×g for 1 minute, and the foil removed. Clear 384 well assay plates were then filled with 15 μL of CSM/galactose. Both compound and media-containing plates were arranged on the Janus workstation and a compound pin tool (384×100 nL slotted pins) used to deliver 100 nL of compounds to each well according to the well map of the compound plate. Based on the previous serial dilution, the final concentration of compound ranged from […] to 12.5 nM. The pin tool was washed iteratively with both 50% DMSO and 100% ethanol between each assay plate. After delivering compound to each assay plate, the overnight CSM/raffinose aSyn or ApoE4 cultures were added at a 2× cell density (0.04 for aSyn and 0.08 for ApoE4) in CSM/galactose to achieve a final assay OD600 of 0.02 and 0.04 for aSyn and ApoE, respectively. […] The OD600 of each assay plate was then read with a microplate reader (e.g., Perkin Elmer Envision).
The efficacy and potency of compounds were calculated according to the following. […] The efficacy (percent above DMSO, herein referred to as “Emax”) was calculated according to the equation: (Experimental well−DMSO control well)/(DMSO control well)*100. […]

[2] = test system: yeast strains expressing the human protein α-synuclein; experiment: Yeast rescue assay, α-synuclein toxicity (OD600 growth); assay type: cell-based; conditions: 40 h; for pEC50: read-out: α-Syn EC50
Description: as §1
Compound profiling assays were executed in clear-bottom 384 well plates. First, compound plates were thawed at room temperature for 45′, centrifuged at 1,000×g for 1 minute, and the foil removed. Clear 384 well assay plates were then filled with 15 μL of CSM/galactose. Both compound and media-containing plates were arranged on the Janus workstation and a compound pin tool (384×100 nL slotted pins) used to deliver 100 nL of compounds to each well according to the well map of the compound plate. Based on the previous serial dilution, the final concentration of compound ranged from […] to 12.5 nM. The pin tool was washed iteratively with both 50% DMSO and 100% ethanol between each assay plate. After delivering compound to each assay plate, the overnight CSM/raffinose aSyn or ApoE4 cultures were added at a 2× cell density (0.04 for aSyn and 0.08 for ApoE4) in CSM/galactose to achieve a final assay OD600 of 0.02 and 0.04 for aSyn and ApoE, respectively. The cultures (15 μL per well) were then dispensed to the compound-containing 384 well assay plates using an automated plate filler. Plates were incubated in a humidified 30° C. incubator for 40 or 24 hours for aSyn and ApoE4, respectively. The OD600 of each assay plate was then read with a microplate reader (e.g., Perkin Elmer Envision).
The efficacy and potency of compounds were calculated according to the following. Raw data (OD600 values) were first background corrected to account for OD600 contributed by the plate and media itself. The efficacy (percent above DMSO, herein referred to as “Emax”) was calculated according to the equation: (Experimental well−DMSO control well)/(DMSO control well)*100. […] Normalized dose-response data was fit with a logistic regression curve using Spotfire (TIBCO), or similar curve-fitting software package. EC50 values were then reported along with EMax to provide both efficacy and potency measures for each analog and enable further compound design.

Ole1 = target: T1, Ole1 (Saccharomyces cerevisiae, UniProt P21147); experiment: Growth inhibition of yeast expressing Ole1 as sole desaturase; assay type: cell-based; conditions: yeast expressing Ole1 as sole desaturase
T1 construct: expressed in transfected cells; host or cells: S. cerevisiae ole1Δ strain (W303 pdr1Δ pdr3Δ background), plasmid pRS316 with TDH3 promoter and CYC1 terminator
T1 sequence (P21147 1-510): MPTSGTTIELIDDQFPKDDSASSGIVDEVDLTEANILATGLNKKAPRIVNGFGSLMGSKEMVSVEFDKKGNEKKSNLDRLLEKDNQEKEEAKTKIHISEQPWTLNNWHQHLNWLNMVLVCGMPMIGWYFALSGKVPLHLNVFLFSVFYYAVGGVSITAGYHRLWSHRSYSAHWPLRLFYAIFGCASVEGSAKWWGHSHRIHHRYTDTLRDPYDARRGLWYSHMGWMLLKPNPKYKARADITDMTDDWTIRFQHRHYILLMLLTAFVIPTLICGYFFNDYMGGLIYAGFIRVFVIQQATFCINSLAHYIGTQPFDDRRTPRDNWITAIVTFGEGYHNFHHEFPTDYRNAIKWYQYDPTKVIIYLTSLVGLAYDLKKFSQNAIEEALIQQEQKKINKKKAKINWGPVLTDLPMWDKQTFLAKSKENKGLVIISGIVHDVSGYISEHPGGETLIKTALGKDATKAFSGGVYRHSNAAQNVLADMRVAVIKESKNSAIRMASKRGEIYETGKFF
Description: (§2) Strain ole1Δ (yeast ole1 deletion mutant) was constructed by deleting OLE1 with NAT-MX6 in BY4741, amplifying the deletion cassette from the genomic DNA of the resulting strain with primers flanking the ORF by 1000 bp upstream and downstream, transforming the resulting deletion cassette into W303 pdr1Δ pdr3Δ, and plating transformants on YPD media containing G418 (200 μg/mL) and nourseothricin (100 μg/mL) with 0.01% TWEEN®-20 and 0.5 mM oleic and palmitoleic acids.
(§3) The coding sequence of yeast OLE1 was also cloned into this plasmid). These clones were then transformed into the ole1Δ strain and plated on CSM-Ura media (CSM lacking uracil) with 2% glucose (w/v) and independent colonies were isolated and amplified.
(§4) All compound profiling experiments were performed using the same basic protocol. Different genetic backgrounds (e.g., gene deletions) or conditions (e.g., addition of oleic and palmitoleic acid) were replaced as indicated below.
(§5) Yeast were cultured using standard techniques in complete synthetic media (CSM) and yeast nitrogen base supplemented with 2% (w/v) carbon source (glucose, raffinose, or galactose) to regulate the expression of the toxic disease protein. An initial starter culture was inoculated in 3 mL CSM-Glucose media and incubated overnight in a 30° C. shaker incubator (225 rpm). Saturated morning cultures were then diluted 1:20 in fresh CSM-Raffinose media and grown for 6 h to an OD600 (optical density) of ˜0.4-0.8 at 30° C. with shaking.
(§6) Compound administration was performed in two separate steps. First, 15 μL of CSM-Galactose (induces expression of toxic protein) was dispensed into clear 384 well assay plates using a MULTIDROP™ Combi reagent dispenser. […] The cultures described above were then diluted to a 2× concentration (0.03 and 0.08 for alpha-synuclein and ApoE, final OD600 of 0.015 and 0.04) in CSM-Galactose. For wild-type and Ole1/SCD1/SCD5 plasmid-containing strains, the 2× cell density was 0.02. […] For 96-well assays (FIGS. 1A and 1B), compound dilutions in DMSO were generated in 96 well plates and 1 μL was manually pipetted into 96 well clear bottom assay plates.
(§7) For experiments using a plasmid-borne copy of Ole1, SCD1, or SCD5 (FIGS. 3B, 6, and 7), media lacking uracil (SX-Ura, where X is glucose, raffinose, or galactose), was used for all steps of the compound profiling protocol to ensure its maintenance throughout the assay.
(§8) After yeast delivery, assay plates were incubated under humidified conditions at 30° C. for 24 to 40 h. ApoE4 rescue experiments were stopped at 24 h, aSyn experiments at 40 h, Ole1 at 24 h, and SCD1/SCD5 at 40 h. The growth of yeast was monitored by reading the OD600 of each well using a microplate reader (Perkin Elmer EnVision™).

SCD5 [3] = target: T2, SCD5 (Homo sapiens, UniProt Q86SK9); experiment: Growth inhibition of humanized yeast expressing SCD5 as sole desaturase; assay type: cell-based; conditions: humanized yeast expressing SCD5
T2 construct: host or cells: S. cerevisiae ole1Δ strain, plasmid pRS316 with TDH3 promoter and CYC1 terminator
T2 sequence (Q86SK9 1-330): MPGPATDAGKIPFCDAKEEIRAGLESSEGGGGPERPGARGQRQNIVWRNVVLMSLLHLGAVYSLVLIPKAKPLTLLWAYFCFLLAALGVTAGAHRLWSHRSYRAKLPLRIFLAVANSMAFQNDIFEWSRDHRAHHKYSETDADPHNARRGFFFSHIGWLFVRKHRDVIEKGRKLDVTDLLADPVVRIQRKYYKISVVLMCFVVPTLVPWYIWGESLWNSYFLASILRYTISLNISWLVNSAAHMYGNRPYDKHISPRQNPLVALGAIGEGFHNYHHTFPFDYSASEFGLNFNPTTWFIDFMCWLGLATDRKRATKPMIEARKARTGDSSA
Description: as §2, §3, §4, §5, §6, §7, §8

SCD1 [4] = target: T3, SCD1 (Homo sapiens, UniProt O00767); experiment: Growth inhibition of humanized yeast expressing SCD1 as sole desaturase; assay type: cell-based; conditions: humanized yeast expressing SCD1
T3 construct: host or cells: S. cerevisiae ole1Δ strain, plasmid pRS316 with TDH3 promoter and CYC1 terminator
T3 sequence (O00767 1-359): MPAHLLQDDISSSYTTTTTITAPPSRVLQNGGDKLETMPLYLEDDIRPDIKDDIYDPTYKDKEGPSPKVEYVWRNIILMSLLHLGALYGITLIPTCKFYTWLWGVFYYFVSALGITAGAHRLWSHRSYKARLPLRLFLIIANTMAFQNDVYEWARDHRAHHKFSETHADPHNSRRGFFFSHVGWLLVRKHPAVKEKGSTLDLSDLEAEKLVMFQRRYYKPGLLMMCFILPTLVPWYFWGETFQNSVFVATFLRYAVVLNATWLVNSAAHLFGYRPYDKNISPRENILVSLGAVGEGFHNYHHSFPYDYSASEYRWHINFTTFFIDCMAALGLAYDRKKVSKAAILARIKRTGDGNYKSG
Method in brief: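 ole1Δ yeast (W303 pdr1Δ pdr3Δ background) carried plasmid-borne human SCD1, human SCD5 or yeast Ole1 as the sole desaturase and were grown in uracil-lacking galactose medium in 384-well plates. Starting 2× density was OD600 0.02, with incubation at 30 °C. Growth was read as OD600 at 24 h for Ole1 and at 40 h for SCD1 and SCD5.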

SCD1 [5] = target: T3, SCD1; experiment: Growth of yeast surviving solely on human SCD1; assay type: cell-based; conditions: percent of the DMSO-treated condition
Description: (§9) FIG. 6 is a series of graphs showing that commercial Scd inhibitors target human SCD1/SCD5 in yeast. Yeast surviving solely on yeast OLE1, or human SCD1 or SCD5, were treated with four commercial Scd inhibitors at indicated concentrations. Data are expressed as a percent of the DMSO-treated condition.
(§10) FIG. 7 is a series of graphs showing that 1,2,4-oxadiazoles target human SCD1 and SCD5. Three “SCD” strains expressing yeast OLE1 or human SCD1 or SCD5 were treated with five representative 1,2,4-oxadiazoles and a cycloheximide toxicity control at concentrations indicated on the logic x-axis. The y-axis indicates the percent of the DMSO-treated condition. […] Approximately one half of all (250) 1,2,4-oxadiazoles tested inhibited SCD1 or SCD5 in a manner that was reversed by oleic/palmitoleic acid treatment.

SCD5 [6] = target: T2, SCD5; experiment: Growth of yeast surviving solely on human SCD5; assay type: cell-based, yeast expressing human SCD5; conditions: percent of the DMSO-treated condition
Description: as §9, §10

yeast OLE1 = target: T4, yeast OLE1 (Saccharomyces cerevisiae, UniProt P21147); experiment: Growth of yeast surviving solely on yeast OLE1; assay type: cell-based; conditions: percent of the DMSO-treated condition
T4 construct: expressed in transfected cells; host or cells: S. cerevisiae ole1Δ strain (W303 pdr1Δ pdr3Δ background), plasmid pRS316 with TDH3 promoter and CYC1 terminator
T4 sequence (P21147 1-510): T1 sequence (P21147 1-510)
Description: as §9, §10

SMILES: CCOc1ccc(-c2noc(C3CCN(C(=O)N4CCCCC4)CC3)n2)cc1OC [Compound 53]
- ApoE4 Emax ([1]; percent above DMSO): 296%
- α-Syn Emax ([2]; percent above DMSO): 81%

SMILES: Cc1ccc(-c2noc(C3CCN(C(=O)C4CC(=O)N(c5ccc(C)c(C)c5)C4)CC3)n2)cc1 (centres unmarked) [Compound 61]
- pEC50 ([1]; Homo sapiens): 4.71
- Emax ([1]; Homo sapiens, percent above DMSO): 465%
- pIC50 (Ole1): 4.39
- OLE1 % Max Inhibition (Ole1): 71.50%
- SCD5 % Max Inhibition (SCD5 [3]): 13.18%
- pEC50 [2]: 4.71
- α-Syn Emax ([2]; percent above DMSO): 229%
- SCD1 % Max Inhibition (SCD1 [4]): 2.37%

SMILES: C[C@@H]1C[C@@H]([C@H](O)CC2CC(=O)NC(=O)C2)C(=O)[C@@H](C)C1 [Cyclohexamide, cycloheximide]
- growth of SCD1-expressing yeast (SCD1 [5]): inhibited growth of all three strains with the same potency
- growth of SCD5-expressing yeast (SCD5 [6]): inhibited growth of all three strains with the same potency
- growth of Ole1-expressing yeast (yeast OLE1): inhibited growth of all three strains with the same potency

SMILES: CCOc1ccc(-c2noc(C3CCN(C(=O)[C@@H]4CC[C@H](c5ccccc5)N4)CC3)n2)cc1OC [compound 119]
- pIC50 (SCD5 [3]): < 4.35
- Emax ([2]; Homo sapiens, percent above DMSO, read-out: α-Syn Emax): 61%
- pEC50 ([2]; Homo sapiens): 4.68
- pIC50 (SCD1 [4]): < 4.35

Reference: patent US20240400546A1, “COMPOUNDS AND USES THEREOF” (JANSSEN PHARMACEUTICA NV, priority 2016, published 2024)
